The values that follow come from patent US20110245242A1, “Heterocyclically Substituted Anilinopyrimides” (Bayer CropScience AG, priority 2008, published 2011).

For data set [1], the system named is Fusarium proliferatum. Nature of the data set: Production of Fumonisin FB1 by Fusarium proliferatum (microtitre plates; FB1 by HPLC-MS/MS, growth by OD620). It is filed as cell-based. The following applies: for pI50 growth: OD620 at the beginning and after 6 days; for pI50 Fum: FB1 concentration in liquid medium after 6 days at 20° C., HPLC-MS/MS.
Data set [2] in a line: log P by HPLC on reversed-phase columns (C 18), method [a], acidic range pH 2.3. It is filed as physicochemical. As for the experimental part: The log P values were measured in accordance with EEC Directive 79/831 Annex V.A8 by HPLC (High Performance Liquid Chromatography) on reversed-phase columns (C 18) using the methods below: [a] The determination was carried out in the acidic range at pH 2.3 using the mobile phases 0.1% aqueous phosphoric acid and acetronitrile linear gradient from 10% acetonitrile to 95% acetronitrile.

A short description of data set [3]: log P by LC-MS, method [b], acid range pH 2.7. It is filed as physicochemical. As for the experimental part: The log P values were measured in accordance with EEC Directive 79/831 Annex V.A8 by HPLC (High Performance Liquid Chromatography) on reversed-phase columns (C 18) using the methods below:
[b] The LC-MS determination in the acid range was carried out at pH 2.7 using the mobile phases 0.1% aqueous formic acid and acetonitrile (contains 0.1% formic acid)
linear gradient from 10% acetonitrile to 95% acetonitrile.

Data set [4] in a line: physchem. It is filed as physicochemical. The following applies: pH 7.8. As for the experimental part:
The log P values were measured in accordance with EEC Directive 79/831 Annex V.A8 by HPLC (High Performance Liquid Chromatography) on reversed-phase columns (C 18) using the methods below: [c] The LC-MS determination in the neutral range was carried out at pH 7.8 using the mobile phases 0.001 molar aqueous ammonium bicarbonate solution and acetonitrile linear gradient from 10% acetonitrile to 95% acetonitrile.

Data set [5] has as its system Sphaerotheca fuliginea. Briefly: Sphaerotheca test (cucumber)/protective. It is filed as in vivo. The following applies: Podosphaera fuliginea, 168 h, active compound concentration of 500 ppm, protective, evaluation 7 days after the inoculation, read-out: efficacy.
Data set [6] is classed as physicochemical. As for the experimental part:
The log P values were measured in accordance with EEC Directive 79/831 Annex V.A8 by HPLC (High Performance Liquid Chromatography) on reversed-phase columns (C 18) using the methods below: […]

Where two headings read alike, the source gives them in different places. Marks after values point to notes of the source that are not given here.

“1-(3-{[4-(Cyclopropylamino)-5-(trifluoromethyl)pyrimidin-2-yl]amino}phenyl)pyrrolidin-2-one [Example 236]”: in data set [1], the pI50 growth was determined as 4.9. For the same molecule, in data set [2] (pH 2.3), the “log P (pH 2.3)” value turned out to be 1.49. In data set [3] (method [b], LC-MS, acid range pH 2.7), the log p was 1.49[b].

For the molecule `CCC(C)Nc1nc(Nc2cccc(N3CCCC3=O)c2)ncc1Cl` (centres unmarked) [Example 8], in data set [1], the “pI50 Fum” value is reported as 4.6 and the pI50 growth is 4. In addition, the log p in data set [2] (pH 2.3) is 1.84[a];. Besides, in data set [4], the log p was 2.92[c].

Regarding `CC1(C)CC(=O)N(c2cccc(Nc3ncc(Cl)c(NC4CC4)n3)c2)C1=O` [Example 25], in data set [1], the “pI50 Fum” value is reported as 6.3 and the pI50 growth is on record as 5.6. In data set [2] (pH 2.3), the log p was 1.83[a].

Take `CC1CCN(c2cccc(Nc3ncc(Br)c(NC4CCC4)n3)c2)C1=O` (centres unmarked) [Example 27]: in data set [1], the “pI50 Fum” value is reported as 6.2 and the pI50 growth is 5.6. Moreover, in data set [2] (pH 2.3), the log p is 2.24[a];. For the same molecule, in data set [3] (pH 2.7), the log p is 2.09[b].

`CCC1COC(=O)N1c1cccc(Nc2ncc(Cl)c(NC3CC3)n2)c1` (centres unmarked) [Example 31]: in data set [1], the “pI50 Fum” value was found to be 6.3 and the pI50 growth is 5.7. For the same molecule, in data set [2] (pH 2.3), the log p is 1.86[a].

As to `CC1COC(=O)N1c1cccc(Nc2ncc(Br)c(NC3CCC3)n2)c1` (centres unmarked) [Example 56], in data set [1], the “pI50 Fum” value amounted to 6.2 and the pI50 growth was 5.6. Also, in data set [2] (pH 2.3), the log p was 1.97[a].

`CC1CCC(=O)N1c1cccc(Nc2ncc(Br)c(NC3CC3)n2)c1` (centres unmarked) [Example 60]: in data set [1], the “pI50 Fum” value was 6.3 and the pI50 growth was determined as 5.5. Besides, the log p in data set [2] (pH 2.3) is 1.72[a];. For the same molecule, the log p in data set [3] (pH 2.7) is 1.72[b].

For the molecule `CC1(C)CC(=O)N(c2cccc(Nc3ncc(C(F)(F)F)c(NC4CC4)n3)c2)C1=O` [Example 62], in data set [1], the “pI50 Fum” value turned out to be 6.2 and the pI50 growth worked out at 5.7. For the same molecule, the log p in data set [2] (pH 2.3) is 2.63[a].

As to `CC1(C)CC(=O)N(c2cccc(Nc3ncc(Br)c(NC4CCC4)n3)c2)C1=O` [Example 63], in data set [1], the “pI50 Fum” value came to 6.6 and the pI50 growth amounted to 5.7. Further, the log p in data set [2] (pH 2.3) is 2.19[a].

Consider `CC1CC(C)N(c2cccc(Nc3ncc(Br)c(NC4CC4)n3)c2)C1=O` (centres unmarked) [Example 84], for which, in data set [1], the “pI50 Fum” value came to 6.3. In addition, the log p in data set [3] (pH 2.7) was 2.01[b]; in data set [4] it was 2.91[c];.

`C[C@H]1COC(=O)N1c1cccc(Nc2ncc(Cl)c(NC3CC3)n2)c1` [Example 92]: in data set [1], the “pI50 Fum” value is recorded as 6.6 and the pI50 growth was 5.7. The log p in data set [3] (pH 2.7) was 1.54[b]. The log p in data set [4] is 2.42[c];.

In the case of `CCOC1CCC(=O)N1c1cccc(Nc2ncc(Cl)c(NC3CC3)n2)c1` (centres unmarked) [Example 106, 1-(3-{[5-Chloro-4-(cyclopropylamino)pyrimidin-2-yl]amino}phenyl)-5-ethoxypyrrolidin-2-one], the pest or weed control at 500 ppm in data set [5] is at least 70%. The chromatographic logP in data set [2] (pH 2.3, log P (pH 2.3)) came out at 1.65; in data set [2] (pH 2.3, log p), 1.65.

In the case of `O=C1CCC(=O)N1c1cc(Nc2ncc(C(F)(F)F)c(NC3CC3)n2)ccc1Cl` [Example 119, 1-(2-Chloro-5-{[4-(cyclopropylamino)-5-(trifluoromethyl)pyrimidin-2-yl]amino}phenyl)pyrrolidine-2,5-dione], the pest or weed control at 500 ppm in data set [5] was at least 70%. Moreover, the chromatographic logP came out at 2.49 in data set [2] (pH 2.3, log P (pH 2.3)) and 2.49 in data set [3] (pH 2.7).

For the molecule `CC(C)Nc1nc(Nc2cccc(N3C(=O)OCC3C)c2)ncc1Cl` (centres unmarked) [Example 139], in data set [1], the “pI50 Fum” value is reported as 5 and the pI50 growth came to 5. For the same molecule, in data set [3] (pH 2.7), the log p is 1.64[b].

With `CC(C)Nc1nc(Nc2cccc(N3C(=O)CC(C)(C)C3=O)c2)ncc1Cl` [Example 140], in data set [1], the “pI50 Fum” value came to 5.7 and the pI50 growth is given as 5.2. In data set [3] (pH 2.7), the log p was 1.81[b].

As for `CC(C)Nc1nc(Nc2cccc(N3C(=O)C(C)CC3C)c2)ncc1Cl` (centres unmarked) [Example 141], in data set [1], the “pI50 Fum” value came out at 5.3 and the pI50 growth is listed as 5. Further, the log p in data set [3] (pH 2.7) was 1.88[b]. In data set [4], the log p is 3.15[c];.

In data set [1], `CC(C)Nc1nc(Nc2cccc(N3CCOC3=O)c2)ncc1Br` [Example 146] displayed a pI50 growth of 5. For the same molecule, in data set [3] (pH 2.7), the log p is 1.63[b].

Turning to `CC1COC(=O)N1c1cccc(Nc2ncc(Cl)c(NCC(F)(F)F)n2)c1` (centres unmarked) [Example 169], in data set [1], the “pI50 Fum” value turned out to be 5.5 and the pI50 growth was determined as 5.1. Moreover, the log p in data set [3] (pH 2.7) was 2.16[b].

With `CN(c1nc(Nc2cccc(N3C(=O)CC(C)(C)C3=O)c2)ncc1Cl)C1CC1` [Example 177], in data set [1], the “pI50 Fum” value came to 6.1 and the pI50 growth stood at 5.7. Moreover, the log p in data set [3] (pH 2.7) was 2.55[b].

In the case of `CC1CC(C)N(c2cccc(Nc3ncc(Cl)c(N(C)C4CC4)n3)c2)C1=O` (centres unmarked) [Example 178], in data set [1], the “pI50 Fum” value came to 5.7 and the pI50 growth was determined as 4.9. Also, in data set [3] (pH 2.7), the log p was 2.61[b].

With `CC1CCN(c2cccc(Nc3ncc(Br)c(NC4CC4)n3)c2)C1=O` (centres unmarked) [Example 187], in data set [1], the “pI50 Fum” value was determined as 6.3 and the pI50 growth is on record as 5.8. Also, the log p in data set [3] (pH 2.7) is 1.87[b]. In data set [4], the log p was 2.83[c];.

As to `CCOC(=O)[C@@H]1CCC(=O)N1c1cccc(Nc2ncc(Cl)c(NC3CC3)n2)c1` [Example 190, Ethyl 1-(3-{[5-chloro-4-(cyclopropylamino)pyrimidin-2-yl]amino}phenyl)-5-oxo-L-prolinate], in data set [5], the pest or weed control at 500 ppm is at least 70%. Moreover, the chromatographic logP in data set [2] (pH 2.3, log P (pH 2.3)) was found to be 1.69; in data set [3] (pH 2.7) it was 1.69; in data set [4], 2.53.

As for `O=C1OCCN1c1cccc(Nc2ncc(C(F)(F)F)c(NC3CCC3)n2)c1` [Example 194], in data set [1], the “pI50 Fum” value is reported as 6.1 and the pI50 growth was 5.4. In data set [3] (pH 2.7), the log p is 2.58[b].

Take `CC1(C)CC(=O)N(c2cccc(Nc3ncc(C(F)(F)F)c(NCC4CC4)n3)c2)C1=O` [Example 196]: in data set [1], the “pI50 Fum” value was found to be 5.3 and the pI50 growth was 4.8. Besides, in data set [3] (pH 2.7), the log p was 2.81[b].

With `CN(c1nc(Nc2ccc(F)c(N3CCCC3=O)c2)ncc1Cl)C1CC1` [Example 198], in data set [1], the “pI50 Fum” value was determined as 5.5 and the pI50 growth is listed as 4.8. The log p in data set [3] (pH 2.7) is 2.53[b]. Also, the log p in data set [4] was 2.92[c];.

Regarding `CC1CC1Nc1nc(Nc2cccc(N3CCCC3=O)c2)ncc1Cl` (centres unmarked) [Example 200], in data set [1], the “pI50 Fum” value turned out to be 4.8 and the pI50 growth amounted to 4.7. In addition, the log p in data set [3] (pH 2.7) is 1.72[b].

Turning to `COCC(C)Nc1nc(Nc2cccc(N3C(=O)CCC3=O)c2)ncc1Cl` (centres unmarked) [Example 202], the results for the log p in data set [3] (pH 2.7), in data set [4] and in data set [6] were 1.26[b];, 2.13[c]; and 1.02[d], respectively.

For the molecule `O=C1CCC(=O)N1c1cccc(Nc2ncc(Cl)c(NC3CCC3)n2)c1` [Example 203], the results for the log p in data set [3] (pH 2.7), in data set [4] and in data set [6] were 1.48[b];, 2.32[c]; and 1.24[d], respectively.

Regarding `CCC1CC(C)C(=O)N1c1cccc(Nc2ncc(Cl)c(NC3CC3)n2)c1` (centres unmarked) [Example 206, 1-(3-{[5-Chloro-4-(cyclopropylamino)pyrimidin-2-yl]amino}phenyl)-5-ethyl-3-methylpyrrolidin-2-one], the pest or weed control at 500 ppm in data set [5] is at least 70%. Also, the chromatographic logP in data set [2] (pH 2.3, log P (pH 2.3)) amounted to 2.19; in data set [3] (pH 2.7), 2.19; in data set [4] it was 3.15.

`CCC1CC(C)C(=O)N1c1cccc(Nc2ncc(Br)c(NC3CCC3)n2)c1` (centres unmarked) [Example 211]: the log p was 2.63[b]; in data set [3] (pH 2.7) and 2.19[d] in data set [6].

On to `O=CN(c1cccc(N2CCCC2=O)c1)c1ncc(Cl)c(NC2CC2)n1` [Example 217, N-[5-Chloro-4-(cyclopropylamino)pyrimidin-2-yl]-N-[3-(2-oxopyrrolidin-1-yl)phenyl]-formamide], for which the pest or weed control at 500 ppm in data set [5] was at least 70%. Further, the chromatographic logP stood at 1.22 in data set [2] (pH 2.3, log P (pH 2.3)) and 1.49 in data set [3] (pH 2.7).

With `CC1CC1Nc1nc(Nc2cccc(N3CCCC3=O)c2)ncc1C(F)(F)F` (centres unmarked) [Example 219], in data set [1], the “pI50 Fum” value amounted to 6.3 and the pI50 growth is listed as 5.5. Also, the log p in data set [3] (pH 2.7) is 2.79[b].

As to `CCC1=C(C)CN(c2cccc(Nc3ncc(Cl)c(NC4CC4)n3)c2)C1=O` [Example 224], in data set [1], the “pI50 Fum” value came to 6 and the pI50 growth worked out at 5.3. Further, the log p in data set [2] (pH 2.3) was 2.2[a].

As to `COCC(=O)N(c1cccc(N2CCCC2=O)c1)c1ncc(Cl)c(NC2CC2)n1` [Example 231, N-[5-Chloro-4-(cyclopropylamino)pyrimidin-2-yl]-2-methoxy-N-[3-(2-oxopyrrolidin-1-yl)phenyl]acetamide], the pest or weed control at 500 ppm in data set [5] is at least 70%. Further, the chromatographic logP in data set [2] (pH 2.3, log P (pH 2.3)) came out at 1.87; in data set [3] (pH 2.7), 1.87; in data set [4], 1.82.

As usually defined, the chromatographic logP is a lipophilicity value derived from retention on a column. High values mean a more lipophilic compound, low ones a more hydrophilic compound.
